The record followed here is patent US12365658B2, “Benzothia(di)azepine compounds and their use as bile acid modulators” (Albireo AB, priority 2021, dated 2025).

The data set relates to Caco-2 cells. In words: Bidirectional permeability assay (Caco-2 cells). The class given is in vitro ADME. The settings on record: 10 μM in FaSSIF buffer, 120 minutes; for Permeability (Caco-2) Papp A2B: absorptive direction (A2B); for Permeability (Caco-2) Papp B2A: secretory direction (B2A). Here is the method:
Bidirectional Permeability Assay (Caco-2 Cells)
Caco-2 cells (Evotec) were seeded at a density of 70,000 cells/well in Millicell® 24-well cell culture insert plates and maintained in an incubator (37° C., 5% CO2, 95% RH) for 21 days with media change on alternate days.
Stock solutions (10 mM) of the test compounds, atenolol (low permeability marker), propranolol (high permeability marker) and digoxin (substrate for P-gp transport pathway) were prepared in dimethylsulfoxide (DMSO). An intermediate stock solution (1 mM) was prepared by diluting 10 μL of 10 mM master stock solution with 90 μL of neat DMSO. A working stock solution (10 μM) was prepared by diluting 50 μL of 1 mM with 4950 μL of FaSSIF buffer. Post addition of compounds to the FaSSIF, samples were subjected to sonication for 2 hours, and centrifuged at 4000 RPM for 30 minutes at 37° C. The 4 mL of resultant supernatant was directly used in the assay. The final DMSO concentration in the transport experiments was 1%.
On the day of assay, Caco-2 monolayers were washed twice with transport buffer (HBSS, pH 7.4) and pre-incubated for 30 min (37° C., 5% CO2, 95% RH) in an incubator. The electrical resistance of the monolayers was measured with a Millicell®-ERS system. Monolayers with trans-epithelial electrical resistance (TEER) values greater than 350 ohm·cm^2 were selected for the assay.
The assay was conducted in absorptive direction (A2B) and secretory (B2A) directions. Transport experiments were initiated by addition of transport assay buffer (FaSSIF buffer prepared in HBSS) consisting of compounds to the donor compartment (apical chamber A-B; basolateral chamber B-A) in duplicate (n=2) wells. Drug free HBSS buffer (pH 7.4) containing 1% bovine serum albumin (BSA) was introduced to the receiver (A-B-basolateral; B-A-Apical) compartments. The volumes of apical and basolateral compartments were 0.4 and 0.8 mL, respectively. After adding dosing solution, plates were incubated in an incubator for 120 minutes at 37° C. After 120 minutes, donor and receiver samples were collected and matrix matched (1:1, 30 μL study sample+30 μL blank buffer) with the opposite buffer. Dosing samples matrix matched (1:1, 30 μL study sample+30 μL blank buffer) with the opposite buffer. Samples were processed by adding acetonitrile containing internal standard (60 μL study sample+200 μL acetonitrile containing internal standard-Tolbutamide, 500 ng/mL). Samples were vortexed and centrifuged at 4000 rpm for 10 minutes. The obtained supernatant (100 μL) was diluted with 100 μL of water and transferred to fresh 96 well plates. The concentration of compounds in the samples was analyzed by liquid chromatography tandem mass spectrometry (LC-MS/MS) method using discovery grade bio-analytical method, as applicable.
The mean apparent permeability (Papp, ×10^−6 cm/sec) of the test compounds, atenolol, propranolol and digoxin were calculated as follows:
where dq/dt=rate of transport (rate of transport of compound in the receiver compartment), C0=initial concentration in the donor compartment, A=surface area of the effective filter membrane.
On the technique in general: Caco-2 cells form a polarised layer with tight junctions and transporters.

Regarding `CCCCC1CN(c2ccccc2)c2cc(SC)c(OCC(C)(OC)C(=O)O)cc2S(=O)(=O)N1C` (single isomer, unassigned) [24, diastereomer 1], the “Permeability (Caco-2) Papp A2B” value was determined as 8.6e-06 cm/s and the “Permeability (Caco-2) Papp B2A” value stood at 1.59e-05 cm/s.

For `CCCCC1CN(c2ccccc2)c2cc(SC)c(OCC(C)(OC)C(=O)O)cc2S(=O)(=O)N1C` (single isomer, unassigned) [24, diastereomer 2], the “Permeability (Caco-2) Papp A2B” value was 1.63e-05 cm/s and the “Permeability (Caco-2) Papp B2A” value amounted to 2.4e-05 cm/s.
